Measurements reported in patent publication US10800792B2, “Inhibitors of Bruton's tyrosine kinase and method of their use” (JANSSEN PHARMACEUTICA NV, priority 2015, dated 2020).

Target: unphosphorylated-BTK kinase domain (UP-BTK), GST-tagged human BTK (389-659aa) (Homo sapiens (Human), UniProt Q06187)
Test: BTK kinase Lanthascreen binding assay
Conditions: unphosphorylated-BTK kinase domain, 50 nM Tracer 236, 60 minutes; pIC50 = negative log of the IC50 in molar
Procedure, shortened: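 Measures how well compounds compete with a fluorescence-labelled tracer for binding to BTK in its unphosphorylated state. IC50 values were fitted and expressed as pIC50 (negative logarithm of the molar IC50).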

Chain of unphosphorylated-BTK kinase domain (UP-BTK), GST-tagged human BTK (389-659aa) (Q06187 389-659): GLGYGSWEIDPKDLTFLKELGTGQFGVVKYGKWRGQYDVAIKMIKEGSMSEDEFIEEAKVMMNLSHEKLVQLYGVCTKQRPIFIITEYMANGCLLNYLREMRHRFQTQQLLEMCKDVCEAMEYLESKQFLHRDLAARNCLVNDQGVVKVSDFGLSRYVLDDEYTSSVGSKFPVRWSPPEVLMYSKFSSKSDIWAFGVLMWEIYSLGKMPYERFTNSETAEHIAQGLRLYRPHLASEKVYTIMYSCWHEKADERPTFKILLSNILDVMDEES

BTK_I_binding pIC50 | SMILES
6.0 | Cc1cc(Oc2ccccc2)c(F)cc1N1C(=O)Nc2c(C(=O)N[C@@H]3CCCN(C)C3)sc3nccc1c23 [Example 303, (R)-5-(5-Fluoro-2-methyl-4-phenoxyphenyl)-N-(1-methylpiperidin-3-yl)-4-oxo-4,5-dihydro-3H-1-thia-3,5,8-triazaacenaphthylene-2-carboxamide]
6.0 | C=CC(=O)N1CC[C@@H](NC(=O)c2sc3nccc4c3c2NC(=O)N4c2ccc(C)cc2C)C1 [Example 304, (R)—N-(1-Acryloylpyrrolidin-3-yl)-5-(2,4-dimethylphenyl)-4-oxo-4,5-dihydro-3H-1-thia-3,5,8-triazaacenaphthylene-2-carboxamide]
6.0 | Cc1cc(Oc2ccccc2)c(F)cc1N1C(=O)Nc2c(C(=O)N[C@@H]3CCCOC3)sc3nccc1c23 [Example 305, (R)-5-(5-Fluoro-2-methyl-4-phenoxyphenyl)-4-oxo-N-(tetrahydro-2H-pyran-3-yl)-4,5-dihydro-3H-1-thia-3,5,8-triazaacenaphthylene-2-carboxamide]
6.0 | Cc1cc(Oc2ccccn2)ccc1N1C(=O)Nc2c(C(=O)N[C@@H]3CCCN(C)C3)sc3nccc1c23 [Example 306, (R)-5-(2-Methyl-4-(pyridin-2-yloxy)phenyl)-N-(1-methylpiperidin-3-yl)-4-oxo-4,5-dihydro-3H-1-thia-3,5,8-triazaacenaphthylene-2-carboxamide]
6.0 | Cc1cc(Oc2ccccc2)c(F)cc1N1C(=O)Nc2c(C(=O)N[C@H]3CCCOC3)sc3nccc1c23 [Example 308, (S)-5-(5-Fluoro-2-methyl-4-phenoxyphenyl)-4-oxo-N-(tetrahydro-2H-pyran-3-yl)-4,5-dihydro-3H-1-thia-3,5,8-triazaacenaphthylene-2-carboxamide]
6.0 | Cc1cc(Oc2ccccc2)ccc1N1C(=O)Nc2c(C(=O)N[C@H]3CCCCN(Cc4ccccc4)C3=O)sc3nccc1c23 [Example 309, (S)—N-(1-Benzyl-2-oxoazepan-3-yl)-5-(2-methyl-4-phenoxyphenyl)-4-oxo-4,5-dihydro-3H-1-thia-3,5,8-triazaacenaphthylene-2-carboxamide]
6.0 | Cc1cc(Oc2ccccc2)ccc1N1C(=O)Nc2c(C(=O)NC[C@@H]3CCCCN3)sc3nccc1c23 [Example 310, (S)-5-(2-Methyl-4-phenoxyphenyl)-4-oxo-N-(piperidin-2-ylmethyl)-4,5-dihydro-3H-1-thia-3,5,8-triazaacenaphthylene-2-carboxamide]
5.9 | C=CC(=O)N1CC[C@@H](NC(=O)c2sc3nccc4c3c2NC(=O)N4c2ccc(Oc3ccccc3)nn2)C1 [Example 311, (R)—N-(1-Acryloylpyrrolidin-3-yl)-4-oxo-5-(6-phenoxypyridazin-3-yl)-4,5-dihydro-3H-1-thia-3,5,8-triazaacenaphthylene-2-carboxamide]
5.9 | CO[C@H]1C[C@@H](NC(=O)c2sc3nccc4c3c2NC(=O)N4c2ccc(Oc3ccccc3)cc2C)CN(C)C1 [Example 312, N-((3R,5S)-5-Methoxy-1-methylpiperidin-3-yl)-5-(2-methyl-4-phenoxyphenyl)-4-oxo-4,5-dihydro-3H-1-thia-3,5,8-triazaacenaphthylene-2-carboxamide]
5.9 | C=CC(=O)N1CC[C@@H](NC(=O)c2sc3nccc4c3c2NC(=O)N4c2ccccc2C)C1 [Example 314, (R)—N-(1-Acryloylpyrrolidin-3-yl)-4-oxo-5-(o-tolyl)-4,5-dihydro-3H-1-thia-3,5,8-triazaacenaphthylene-2-carboxamide]
6.9 | Cc1cc(Oc2ccccc2)ccc1N1C(=O)Nc2c(C(=O)NCC(=O)N3CCOCC3)sc3nccc1c23 [Example 315, 5-(2-Methyl-4-phenoxyphenyl)-N-(2-morpholino-2-oxoethyl)-4-oxo-4,5-dihydro-3H-1-thia-3,5,8-triazaacenaphthylene-2-carboxamide]
